Measured values published in patent publication US6734190B2, “Dihydrodipyrazolopyridinylbenzamide and -sulfonamide inhibitors of B7-1” (Wyeth, priority 2002, dated 2004).

Columns and labels:
[1] = target: T1, B7-1/CD28 (Homo sapiens, UniProt P33681); assay: CD28/B7-1 ELISA (B7-1/CD28 binding inhibition); conditions: CD28-Fc coated wells; B7-1-Fc-biotin/streptavidin-alkaline phosphatase detection complex; 1% DMSO
T1 sequence (P33681 35-242 limits assumed): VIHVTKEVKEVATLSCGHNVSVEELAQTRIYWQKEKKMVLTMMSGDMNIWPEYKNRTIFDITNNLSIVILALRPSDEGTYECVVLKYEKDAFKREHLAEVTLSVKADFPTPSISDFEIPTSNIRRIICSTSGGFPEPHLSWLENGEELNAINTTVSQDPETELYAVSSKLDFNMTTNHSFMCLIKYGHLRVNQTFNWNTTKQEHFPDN
Procedure: Evaluation of B7-1/CD28 Binding Inhibition for Test Compounds
Wells are coated with 300 ng CD28-Fc in carbonate buffer (pH 9.4) overnight at 4° C., blocked with 1% bovine serum albumin in tris-buffered saline (TBS) for 1 h at 22° C. and washed 3 times in TBS prior to assay. The detection complex is formed as follows: B7-1-Fc-biotin, prepared using NHS-LC-biotin (Pierce #21335) according to the manufacturers instructions (4.1 moles biotinimole Fc), is added at 0.8 ug/ml to streptavidin-alkaline phosphatase (Caltag Sa1008) at 1:1000 in TBS. A solution of test compound in dimethylsulfoxide (1% final) are added to this complex and incubated 30 min at 22° C. Detection complex (+/−inhibitors) is then added to the CD28 coated wells for 25 min at 22° C., washed 5 times with TBS, developed with the colorimetric substrate pNPP (Pierce #34045) in diethanolamine/MgCl2 buffer (pH 9.5) and read at 405 nm. The inhibition constant (IC50) is calculated by subtracting background binding and comparing to uninhibited (DMSO alone) controls. The inhibition constant represents the concentration of test compound required to achieve 50% inhibition.

Compound | IC50 [1] [µM] | melting point
Cn1ncc2c3[nH]n(-c4ccc(C(=O)N5CCCC(CO)C5)cc4)c(=O)c3c(-c3cccc(C(F)(F)F)c3)nc21 (stereo not shown) [Example 36] | 0.18 | 189.8 to 192.7 °C
Cn1ncc2c3[nH]n(-c4cccc(C(=O)N5CCC[C@H]5C(=O)O)c4)c(=O)c3c(-c3cccc(C(F)(F)F)c3)nc21 [Example 69] | 0.1 | 168 to 171 °C
Cn1ncc2c3[nH]n(-c4ccc(C(=O)NCCCO)cc4)c(=O)c3c(-c3cccc(C(F)(F)F)c3)nc21 [Example 28] | 0.098 | 193 to 195 °C
Cn1ncc2c3[nH]n(-c4ccc(C(=O)Nc5cccc6c5CCCC6O)cc4)c(=O)c3c(-c3cccc(C(F)(F)F)c3)nc21 (stereo not shown) [Example 43] | 0.3 | 298 °C (dec.)
COC(=O)C1CCN(C(=O)c2ccc(-n3[nH]c4c(c(-c5cccc(C(F)(F)F)c5)nc5c4cnn5C)c3=O)cc2)CC1 [Example 26] | 0.09 | 187 °C (dec.)
Cn1ncc2c3[nH]n(-c4cccc(C(=O)N5CCC[C@@H]5C(=O)O)c4)c(=O)c3c(-c3cccc(C(F)(F)F)c3)nc21 [Example 13, (2R)-1-[3-(6-methyl-3-oxo-4-[3-(trifluoromethyl)phenyl]-3,6-dihydrodipyrazolo[3,4-b:3,4-d]pyridin-2(1H)-yl)benzoyl]-2-pyrrolidinecarboxylic acid] | 0.02 | 199 to 202 °C
CC(O)c1cccc(NC(=O)c2ccc(-n3[nH]c4c(c(-c5cccc(C(F)(F)F)c5)nc5c4cnn5C)c3=O)cc2F)c1 (stereo not shown) [Example 24] | 0.11 | > 350 °C
CN1CCN(C(=O)c2ccc(-n3[nH]c4c(c(-c5cccc(C(F)(F)F)c5)nc5c4cnn5C)c3=O)cc2)CC1 [Example 27] | 0.5 | 191 to 194 °C
Cn1ncc2c3[nH]n(-c4ccc(C(=O)Nc5ccc(O)c(O)c5)cc4)c(=O)c3c(-c3cccc(C(F)(F)F)c3)nc21 [Example 98] | 0.036 | 206 to 209 °C
Cn1ncc2c3[nH]n(-c4cccc(C(=O)NCc5ccc(O)c(O)c5)c4)c(=O)c3c(-c3cccc(C(F)(F)F)c3)nc21 [Example 18, N-(3,4-dihydroxybenzyl)-3-(6-methyl-3-oxo-4-[3-(trifluoromethyl)phenyl]-3,6-dihydrodipyrazolo[3,4-b:3,4-d]pyridin-2(1H)-yl)benzamide] | 0.009 | 177.7 to 179.8 °C
COc1cc(CNC(=O)c2cccc(-n3[nH]c4c(c(-c5cccc(C(F)(F)F)c5)nc5c4cnn5C)c3=O)c2)ccc1O [Example 17] | 0.055 | 172 to 176 °C
CC(=O)c1cccc(NC(=O)c2ccc(-n3[nH]c4c(c(-c5cccc(C(F)(F)F)c5)nc5c4cnn5C)c3=O)cc2)c1 [Example 38] | 0.044 | 300 °C (dec.)
COCc1cccc(NC(=O)c2ccc(-n3[nH]c4c(c(-c5cccc(C(F)(F)F)c5)nc5c4cnn5C)c3=O)cc2)c1 [Example 29] | 0.11 | 210 °C (dec.)
Cn1ncc2c3[nH]n(-c4cccc(C(=O)N5CCCC5)c4)c(=O)c3c(-c3cccc(C(F)(F)F)c3)nc21 [Example 11, 6-methyl-2-[3-(1-pyrrolidinylcarbonyl)phenyl]-4-[3-(trifluoromethyl)phenyl]-1,6-dihydrodipyrazolo[3,4-b:3,4-d]pyridin-3(2H)-one] | 0.044 | 255 to 258 °C
COC(CN(C)C(=O)c1ccc(-n2[nH]c3c(c(-c4cccc(C(F)(F)F)c4)nc4c3cnn4C)c2=O)cc1)OC [Example 80] | 0.17 | –
CN(CCC#N)C(=O)c1cccc(-n2[nH]c3c(c(-c4cccc(C(F)(F)F)c4)nc4c3cnn4C)c2=O)c1 [Example 61] | 0.33 | –
CCOC(=O)c1cccc(NC(=O)c2cccc(-n3[nH]c4c(c(-c5cccc(C(F)(F)F)c5)nc5c4cnn5C)c3=O)c2)c1 [Example 48] | 0.44 | –
Cn1ncc2c3[nH]n(-c4ccc(S(=O)(=O)NCc5ccccc5)cc4)c(=O)c3c(-c3cccc(C(F)(F)F)c3)nc21 [Example 103, N-benzyl-4-[6-methyl-3-oxo-4-(3-trifluoromethyl-phenyl)-3,6-dihydro-1H-1,2,5,6,7-pentaaza-as-indacen-2-yl]-benzenesulfonamide] | 1.5 | –
CN(C)CCCNC(=O)c1ccc(-n2[nH]c3c(c(-c4cccc(C(F)(F)F)c4)nc4c3cnn4C)c2=O)cc1 [Example 90] | 0.16 | –
CC(O)c1cccc(NC(=O)c2cccc(-n3[nH]c4c(c(-c5cccc(C(F)(F)F)c5)nc5c4cnn5C)c3=O)c2)c1 (stereo not shown) [Example 51] | 0.13 | –
Cn1ncc2c3[nH]n(-c4ccc(C(=O)NCCCCCO)cc4)c(=O)c3c(-c3cccc(C(F)(F)F)c3)nc21 [Example 96] | 0.092 | –
Cn1ncc2c3[nH]n(-c4cccc(C(=O)NCC5CC5)c4)c(=O)c3c(-c3cccc(C(F)(F)F)c3)nc21 [Example 12] | 0.08 | –

Compound | IC50 [1] [µM] | melting point
CCN(CC)C(=O)C1CCCN(C(=O)c2ccc(-n3[nH]c4c(c(-c5cccc(C(F)(F)F)c5)nc5c4cnn5C)c3=O)cc2)C1 (stereo not shown) [Example 88] | 0.29 | –
Cn1ncc2c3[nH]n(-c4ccc(S(=O)(=O)NCC(=O)O)cc4)c(=O)c3c(-c3cccc(C(F)(F)F)c3)nc21 [Example 107, ({[4-(6-methyl-3-oxo-4-[3-(trifluoromethyl)phenyl]-3,6-dihydrodipyrazolo[3,4-b:3,4-d]pyridin-2(1H)-yl)phenyl]sulfonyl}amino)acetic acid] | 0.45 | –
CC1CCCN(C(=O)c2cccc(-n3[nH]c4c(c(-c5cccc(C(F)(F)F)c5)nc5c4cnn5C)c3=O)c2)C1 (stereo not shown) [Example 57] | 0.092 | –
Cn1ncc2c3[nH]n(-c4ccc(C(=O)N5CCSC5)cc4)c(=O)c3c(-c3cccc(C(F)(F)F)c3)nc21 [Example 83] | 0.11 | –
COCCNC(=O)c1cccc(-n2[nH]c3c(c(-c4cccc(C(F)(F)F)c4)nc4c3cnn4C)c2=O)c1 [Example 20] | 0.062 | –
Cn1ncc2c3[nH]n(-c4ccc(C(=O)Nc5ccc(CO)cc5)cc4)c(=O)c3c(-c3cccc(C(F)(F)F)c3)nc21 [Example 87] | 0.044 | –
Cn1ncc2c3[nH]n(-c4cccc(C(=O)N5CCOCC5)c4)c(=O)c3c(-c3cccc(C(F)(F)F)c3)nc21 [Example 6] | 0.054 | –
Cn1ncc2c3[nH]n(-c4ccc(C(=O)N5CCCC5)cc4)c(=O)c3c(-c3cccc(C(F)(F)F)c3)nc21 [Example 81] | 0.11 | –
Cn1ncc2c3[nH]n(-c4cccc(C(=O)NN)c4)c(=O)c3c(-c3cccc(C(F)(F)F)c3)nc21 [Example 44] | 0.08 | –
Cn1ncc2c3[nH]n(-c4cccc(C(=O)NCCOCCOCCN)c4)c(=O)c3c(-c3cccc(C(F)(F)F)c3)nc21 [Example 46] | 0.15 | –
COC(=O)c1cn(C(=O)c2cccc(-n3[nH]c4c(c(-c5cccc(C(F)(F)F)c5)nc5c4cnn5C)c3=O)c2)c2ccccc12 [Example 15] | 0.063 | –
Cn1ncc2c3[nH]n(-c4ccc(C(N)=O)cc4)c(=O)c3c(-c3cccc(C(F)(F)F)c3)nc21 [Example 70] | 0.038 | –
CC(C)c1ccc(NC(=O)c2ccc(-n3[nH]c4c(c(-c5cccc(C(F)(F)F)c5)nc5c4cnn5C)c3=O)cc2)cc1 [Example 78] | 0.12 | –
Cn1ncc2c3[nH]n(-c4ccc(C(=O)Nc5ccc(O)cc5)cc4)c(=O)c3c(-c3cccc(C(F)(F)F)c3)nc21 [Example 73] | 0.011 | –
CCC(O)c1cccc(NC(=O)c2ccc(-n3[nH]c4c(c(-c5cccc(C(F)(F)F)c5)nc5c4cnn5C)c3=O)cc2)c1 (stereo not shown) [Example 100] | 0.8 | –
COC(=O)CNS(=O)(=O)c1ccc(-n2[nH]c3c(c(-c4cccc(C(F)(F)F)c4)nc4c3cnn4C)c2=O)cc1 [Example 105, methyl ({[4-(6-methyl-3-oxo-4-[3-(trifluoromethyl)phenyl]-3,6-dihydrodipyrazolo[3,4-b:3,4-d]pyridin-2(1H)-yl)phenyl]sulfonyl}amino)acetate] | 0.34 | –
Cn1ncc2c3[nH]n(-c4cccc(C(=O)N5CCc6ccccc6C5)c4)c(=O)c3c(-c3cccc(C(F)(F)F)c3)nc21 [Example 52] | 0.3 | –
Cn1ncc2c3[nH]n(-c4ccc(S(=O)(=O)NCC5CC5)cc4)c(=O)c3c(-c3cccc(C(F)(F)F)c3)nc21 [Example 106, N-cyclopropylmethyl-4-[6-methyl-3-oxo-4-(3-trfluoromethyl-phenyl)-3,6-dihydro-1H-1,2,5,6,7-pentaaza-as-indacen-2-yl]-benzenesulfonamide] | 0.9 | –
COC(=O)[C@H]1CCCN1C(=O)c1cc(-n2[nH]c3c(c(-c4cccc(C(F)(F)F)c4)nc4c3cnn4C)c2=O)ccc1Cl [Example 64] | 0.18 | –
Cn1ncc2c3[nH]n(-c4ccc(C(=O)Nc5ccccc5CO)cc4)c(=O)c3c(-c3cccc(C(F)(F)F)c3)nc21 [Example 86] | 0.04 | –
COC(=O)[C@H]1CCCN1C(=O)c1cccc(-n2[nH]c3c(c(-c4cccc(C(F)(F)F)c4)nc4c3cnn4C)c2=O)c1 [Example 53] | 0.27 | –
Cn1ncc2c3[nH]n(-c4ccc(C(=O)NCc5ccc(F)cc5)cc4)c(=O)c3c(-c3cccc(C(F)(F)F)c3)nc21 [Example 91] | 0.067 | –
